≈ marks a conversion by molar mass, not a printed value.
Tests used:
S. aureus SA-3528 = experiment: Cross resistance antibacterial assay (MIC), strain 7; format: cell-based; details: Staphylococcus aureus, SA3528; S. aureus SA-3528, multiple drug resistant (MLS); read-out: Minimum Inhibitory Concentrations in Strain 7
Excerpt: (§1) Test C—Cross Resistance Antibacterial Assay

E. faecalis EF-13524 = experiment: Cross resistance antibacterial assay (MIC), strain 2; format: cell-based; details: Enterococcus faecalis, EF13524; E. faecalis EF-13524, vancomicin resistant strain; read-out: Minimum Inhibitory Concentrations in Strain 2
Excerpt: as §1

S pyogenes C203 = experiment: Antibacterial assay (MIC), standard microtitration, Gram positive; format: cell-based; details: Gram positive bacteria; read-out: Minimum Inhibitory Concentrations S pyogenes C203
Excerpt: (§2) Test A—Antibacterial Assays

S. aureus UC-76 = experiment: as above; format: cell-based; details: Staphylococcus aureus, UC76; Gram positive bacteria; read-out: Minimum Inhibitory Concentrations S. aureus UC-76
Excerpt: as §2

E. faecalis MGH-2 = experiment: as above; format: cell-based; details: Enterococcus faecalis, MGH2; Gram positive bacteria; read-out: Minimum Inhibitory Concentrations E. faecalis MGH-2
Excerpt: as §2

M. catarrhalis BC3534 = experiment: Antibacterial assay (MIC), standard microtitration, Gram negative; format: cell-based; details: Moraxella catarrhalis, BC3534; Gram negative bacteria; read-out: Minimum Inhibitory Concentrations M. catarrhalis BC3534
Excerpt: as §2

H. influenzae HI3542 = experiment: as above; format: cell-based; details: Haemophilus influenzae, HI3542; Gram negative bacteria; read-out: Minimum Inhibitory Concentrations H. influenzae HI3542
Excerpt: as §2

E. coli Tol C = experiment: as above; format: cell-based; details: Escherichia coli, read-out: Minimum Inhibitory Concentrations E. coli Tol C
Excerpt: as §2

E. faecalis EF-3838 = experiment: Cross resistance antibacterial assay (MIC), strain 3; format: cell-based; details: Enterococcus faecalis, EF3838; E. faecalis EF-3838, multiple drug resistant (vancomicin, erythromycin, gentamicin); read-out: Minimum Inhibitory Concentrations in Strain 3
Excerpt: as §1

S. pyogenes C-203 = experiment: In vivo activity (mouse), median protective dose in lethal systemic infection; details: mice
Experimental: Test B—In Vivo Activity (Mouse)
The in vivo activity was obtained when the compounds were tested according to the procedure of Miller, et al. (Proc. Soc. Exp. Biol. Med., 1944; 57:261). The median protective dose (PD50) was determined in mice given lethal systemic infections, as depicted in Table 4.

E. faeciaum EF4-3836 = experiment: Cross resistance antibacterial assay (MIC), strain 5; details: read-out: Minimum Inhibitory Concentrations in Strain 5
Experimental: (§3) The compounds of the present invention were tested against an assortment of drug resistant organisms described below using standard microtitration techniques (Cohen, et. al., Antimicrob. Agents Chemother., 1985; 28:766; Heifetz, et. al., Antimicrob. Agents Chemother, 1974; 6:124). […] E. faeciaum EF4-3525: Vancomicin resitant strain. • 5. E. faeciaum EF4-3836: Multiple drug resitant strain (lineozolid, AZD2563-R, vancomicin, ampicillin, macrolide-R, quinolone-R, trimeothprim/sulfamethoxazole). • 6.

S. aureus SA-2017 = experiment: Cross resistance antibacterial assay (MIC), strain 6; format: cell-based; details: Staphylococcus aureus, SA2017; S. aureus SA-2017, multiple drug resistant (methicillin, ciprofloxacin); read-out: Minimum Inhibitory Concentrations in Strain 6
Excerpt: as §1

S. aureus SA-3839 = experiment: Cross resistance antibacterial assay (MIC), strain 8; format: cell-based; details: Staphylococcus aureus, SA3839; S. aureus SA-3839, multiple drug resistant (linezolid and methicillin); read-out: Minimum Inhibitory Concentrations in Strain 8
Excerpt: as §1

E. faeciaum EF4-3525 = experiment: Cross resistance antibacterial assay (MIC), strain 4; details: read-out: Minimum Inhibitory Concentrations in Strain 4
Experimental: as §3

S. pneumoniae SP-3536 = experiment: Cross resistance antibacterial assay (MIC), strain 10; format: cell-based; details: Streptococcus pneumoniae, SP3536; S. pneumoniae SP-3536, multiple drug resistant (B-lactamase and macrolide-R); read-out: Minimum Inhibitory Concentrations in Strain 10
Excerpt: as §1

H. influenziae Hi-3113 = experiment: Cross resistance antibacterial assay (MIC), strain 13; format: cell-based; details: H. influenziae Hi-3113, B-lactamase; read-out: Minimum Inhibitory Concentrations in Strain 13
Excerpt: as §1
13. H. influenziae Hi-3113: B-lactamase

S. pneumoniae SP-3561 = experiment: Cross resistance antibacterial assay (MIC), strain 11; format: cell-based; details: Streptococcus pneumoniae, SP3561; S. pneumoniae SP-3561, multiple drug resistant (penicillin, macrolide-R, tetracycline etc.); read-out: Minimum Inhibitory Concentrations in Strain 11
Excerpt: as §1

S. aureus SA-3840 = experiment: Cross resistance antibacterial assay (MIC), strain 9; format: cell-based; details: Staphylococcus aureus, SA3840; S. aureus SA-3840, multiple drug resistant (linezolid and methicillin); read-out: Minimum Inhibitory Concentrations in Strain 9
Excerpt: as §1

S. pyogenes SP1-3541 = experiment: Cross resistance antibacterial assay (MIC), strain 12; format: cell-based; details: Streptococcus pyogenes, SP13541; S. pyogenes SP1-3541, multiple drug resistant (MLS); read-out: Minimum Inhibitory Concentrations in Strain 12
Excerpt: as §1

SMILES | MIC (S. aureus SA-3528) [µg/mL] | MIC (E. faecalis EF-13524) [µg/mL] | MIC (S pyogenes C203) [µg/mL] | MIC (S. aureus UC-76) [µg/mL] | MIC (E. faecalis MGH-2) [µg/mL] | MIC (M. catarrhalis BC3534) [µg/mL] | MIC (H. influenzae HI3542) [µg/mL] | MIC (E. coli Tol C) [µg/mL] | MIC (E. faecalis EF-3838) [µg/mL] | MIC (E. faeciaum EF4-3836) [µg/mL] | MIC (S. aureus SA-2017) [µg/mL] | MIC (S. aureus SA-3839) [µg/mL] | MIC (E. faeciaum EF4-3525) [µg/mL] | other results
CC(=O)NC[C@H]1CN(c2ccc3c(c2)CCCc2cn[nH]c2-3)C(=O)O1 [Example 3, (S)-N-[2-Oxo-3-(1,4,5,6-tetrahydro-1,2-diaza-benzo[e]azulen-8-yl)oxazolidin-5-ylmethyl]acetamide] | 8 (≈ 23.5 µM) | 0.25 (≈ 0.734 µM) | 0.125 (≈ 0.367 µM) | 0.5 (≈ 1.47 µM) | 0.25 (≈ 0.734 µM) | 2 (≈ 5.88 µM) | 2 (≈ 5.88 µM) | > 64 | 0.5 (≈ 1.47 µM) | 1 (≈ 2.94 µM) | 1 (≈ 2.94 µM) | 16 (≈ 47 µM) | 0.5 (≈ 1.47 µM) | PD50 (median protective dose) (S. pyogenes C-203; S. pyogenes C-203, oral): 6.4 mg/kg; PD50 (median protective dose) (S. pyogenes C-203; S. pyogenes C-203, subcutaneous): 2.1 mg/kg
CC(=O)NC[C@H]1CN(c2ccc3c(c2)CCCc2cnoc2-3)C(=O)O1 [Example 3A, (S)-N-[3-(5,6-dihydro-4H-1-oxa-2-aza-benzo[e]azulen-8-yl)-2-oxo-oxalidin-5-ylmethyl]acetamide] | 48 (≈ 141 µM) | 0.25 (≈ 0.732 µM) |  |  |  |  |  |  | 1 (≈ 2.93 µM) | 1 (≈ 2.93 µM) | 0.5 (≈ 1.46 µM) | 4 (≈ 11.7 µM) | 0.5 (≈ 1.46 µM) | MIC (S. pneumoniae SP-3536): 4 µg/mL (≈ 11.7 µM); MIC (H. influenziae Hi-3113): 2 µg/mL (≈ 5.86 µM); MIC (S. pneumoniae SP-3561): 0.25 µg/mL (≈ 0.732 µM); MIC (S. aureus SA-3840): 4 µg/mL (≈ 11.7 µM); MIC (S. pyogenes SP1-3541): 0.5 µg/mL (≈ 1.46 µM)
CC(C)(C)OC(=O)NC[C@H]1CN(c2ccc3c(c2)CCCc2cn[nH]c2-3)C(=O)O1 [Example 56, (S)-[2-Oxo-3-(1,4,5,6-tetrahydro-1,2-diaza-benzo[e]azulen-8-yl)-oxazolidin-5-ylmethyl]-carbamic acid tert-butyl ester] |  |  | 4 (≈ 10 µM) | 1 (≈ 2.51 µM) | 4 (≈ 10 µM) | 16 (≈ 40.2 µM) | > 64 | > 64 |  |  |  |  |  | melting point: 85 to 100 °C
Br.CC(=O)NC[C@H]1CN(c2ccc3c(c2)CCCc2sc(N)nc2-3)C(=O)O1 [Example 186, (S)-N-[3-(2-Amino-5,6-dihydro-4H-3-thia-1-aza-benzo[e]azulen-8-yl)-2-oxo-oxazolidin-5-ylmethyl]-acetamide hydrobromic acid salt] |  |  | 1 | 2 | 1 | 8 | 4 | > 64 |  |  |  |  |  | 
CC(=O)NC[C@H]1CN(c2ccc3c(c2)CCCc2c-3nn(CCO)c2-c2ccncc2)C(=O)O1 [Example 209, (S)-N-{3-[2-(2-Hydroxy-ethyl)-3-pyridin-4-yl-2,4,5,6-tetrahydro-1,2-diaza-benzo[e]azulen-8-yl]-2-oxo-oxazolidin-5-ylmethyl}-acetamide] |  |  | 4 (≈ 8.67 µM) | 16 (≈ 34.7 µM) | 8 (≈ 17.3 µM) | > 64 | 32 (≈ 69.3 µM) | > 64 |  |  |  |  |  | 
